Common to all, as to format: cell-based
In one experiment the target is PDGFR (Homo sapiens, UniProt P09619). Description: PDGF-induced BrdU incorporation assay. Also noted: expressed in transfected cells; host or cells: 3T3. The settings on record: Table 7; 3T3 cells expressing human PDGF-R, PDGF 3.8 nM; read-out: BrdU DNA syn. PDGFr IC50. As for the experimental part: The cellular/biologic assays described herein measure the amount of DNA made in response to activation of a test kinase, which is a general measure of a proliferative response. The general procedure for this assay is as follows: a compound is introduced to cells expressing the test kinase, either naturally or recombinantly, for some period of time after which, if the test kinase is a receptor, a ligand known to activate the receptor is added. After incubation at least overnight, a DNA labeling reagent such as Bromodeoxy-uridine (BrdU) or 3H-thymidine is added. The amount of labeled DNA is detected with either an anti-BrdU antibody or by measuring radioactivity and is compared to control cells not contacted with a test compound.
PDGFR, sequence (P09619 33-1106): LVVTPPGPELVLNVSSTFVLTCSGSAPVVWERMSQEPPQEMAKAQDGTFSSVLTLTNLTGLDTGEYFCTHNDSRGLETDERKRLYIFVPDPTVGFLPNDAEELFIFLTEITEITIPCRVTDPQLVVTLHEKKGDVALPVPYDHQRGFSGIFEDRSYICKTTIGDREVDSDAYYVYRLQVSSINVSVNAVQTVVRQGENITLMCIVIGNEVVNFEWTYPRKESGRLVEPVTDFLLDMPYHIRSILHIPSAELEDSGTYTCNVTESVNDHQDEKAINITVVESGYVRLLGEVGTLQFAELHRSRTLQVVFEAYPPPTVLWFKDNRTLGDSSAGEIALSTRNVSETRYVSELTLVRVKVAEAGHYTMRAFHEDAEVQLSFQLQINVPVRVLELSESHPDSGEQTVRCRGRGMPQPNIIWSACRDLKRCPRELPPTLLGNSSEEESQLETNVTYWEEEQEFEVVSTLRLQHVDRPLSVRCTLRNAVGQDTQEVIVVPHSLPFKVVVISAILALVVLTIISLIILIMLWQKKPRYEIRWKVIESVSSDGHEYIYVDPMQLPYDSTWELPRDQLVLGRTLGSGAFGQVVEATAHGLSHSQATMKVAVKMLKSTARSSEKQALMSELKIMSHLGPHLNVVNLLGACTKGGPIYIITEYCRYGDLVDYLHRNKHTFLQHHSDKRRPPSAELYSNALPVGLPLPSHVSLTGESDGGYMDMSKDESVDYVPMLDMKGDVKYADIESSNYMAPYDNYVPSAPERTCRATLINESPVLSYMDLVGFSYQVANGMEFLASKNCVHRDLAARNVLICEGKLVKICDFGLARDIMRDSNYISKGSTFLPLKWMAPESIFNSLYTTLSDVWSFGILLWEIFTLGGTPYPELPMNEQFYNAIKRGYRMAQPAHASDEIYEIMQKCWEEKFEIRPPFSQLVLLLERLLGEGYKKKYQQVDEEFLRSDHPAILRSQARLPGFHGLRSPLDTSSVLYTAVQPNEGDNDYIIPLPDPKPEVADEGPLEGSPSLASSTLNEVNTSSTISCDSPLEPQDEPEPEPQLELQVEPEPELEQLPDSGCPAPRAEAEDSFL
PDGF-Induced BrdU Incorporation Assay
(8) 3T3 cell line genetically engineered to express human PDGF-R.
(1) Cells are seeded at 8000 cells/well in DMEM, 10% CS, 2 mM Gln in a 96 well plate. Cells are incubated overnight at 37° C. in 5% CO2.
(2) After 24 hours, the cells are washed with PBS, and then are serum starved in serum free medium (0% CS DMEM with 0.1% BSA) for 24 hours.
(3) On day 3, ligand (PDGF, 3.8 nM, prepared in DMEM with 0.1% BSA) and test compounds are added to the cells simultaneously. The negative control wells receive serum free DMEM with 0.1% BSA only; the positive control cells receive the ligand (PDGF) but no test compound. Test compounds are prepared in serum free DMEM with ligand in a 96 well plate, and serially diluted for 7 test concentrations.
(4) After 20 hours of ligand activation, diluted BrdU labeling reagent (1: 100 in DMEM, 0.1% BSA) is added and the cells are incubated with BrdU (final concentration=10 μM) for 1.5 hours.
(10) The absorbance of the samples are measured at 410 nm (in “dual wavelength” mode with a filter reading at 490 nm, as a reference wavelength) on a Dynatech ELISA plate reader.
A general note: Incorporation of labelled thymidine or its analogues reports DNA synthesis.

The target of experiment [1] is T1, Her2 (Homo sapiens, UniProt P04626).
T1 construct: fused on or other part: P00533 (Epidermal growth factor receptor)
T1 sequence (P04626 676-1255 limits assumed): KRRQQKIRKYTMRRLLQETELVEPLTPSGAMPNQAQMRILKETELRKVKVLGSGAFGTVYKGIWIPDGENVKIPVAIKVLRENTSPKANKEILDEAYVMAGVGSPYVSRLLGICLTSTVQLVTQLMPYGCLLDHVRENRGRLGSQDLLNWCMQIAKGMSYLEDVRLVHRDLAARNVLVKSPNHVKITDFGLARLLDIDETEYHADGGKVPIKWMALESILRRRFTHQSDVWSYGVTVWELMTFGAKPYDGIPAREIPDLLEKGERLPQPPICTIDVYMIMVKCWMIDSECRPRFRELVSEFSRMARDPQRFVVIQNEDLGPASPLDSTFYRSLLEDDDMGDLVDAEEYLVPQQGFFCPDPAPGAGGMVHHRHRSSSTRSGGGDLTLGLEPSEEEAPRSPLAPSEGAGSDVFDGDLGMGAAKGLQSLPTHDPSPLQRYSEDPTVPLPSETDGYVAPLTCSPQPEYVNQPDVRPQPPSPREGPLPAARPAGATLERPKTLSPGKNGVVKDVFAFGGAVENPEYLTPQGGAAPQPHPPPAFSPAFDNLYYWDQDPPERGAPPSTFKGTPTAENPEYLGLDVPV
Nature of the experiment: EGF-induced Her2-driven BrdU incorporation. The settings on record: Table 7; 3T3 cells with EGF-R/Her2 chimeric receptor, EGF 2 nM; read-out: BrdU DNA syn. HER2 IC50. The procedure, abridged: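 3T3 cells expressing an EGF-R extracellular/Her2 intracellular chimera were serum-starved 24 h, then given compound (7 concentrations) together with 2 nM EGF. After 20 h, BrdU (final […]) was added for 1.5 h. Incorporation was detected with anti-BrdU antibody, read at 410 nm against 490 nm reference.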

Experiment [2] has as its target T1, Her2. Description: HER-2 ELISA: EGF receptor-HER2 chimeric receptor assay in whole cells (HER2 kinase). The note with it: Table 7; NIH3T3 cells with EGFR/HER2 chimeric receptor, phosphotyrosine ELISA. In short, it runs like this: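 NIH3T3 cells expressing an EGFR extracellular/HER2 kinase-domain chimera, serum-reduced (0.5%), pretreated 2 h with compound (1% DMSO final), then stimulated 5 min with 100 nM EGF at room temperature. Lysate phosphotyrosine quantified by anti-pTyr ELISA, OD 410 nm; % inhibition after negative-control subtraction.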
On the technique in general: ELISA stands for enzyme-linked immunosorbent assay.

Bounds are passed on as bounds.

A word on the IC50: it is the midpoint of a concentration-inhibition curve. As for `COc1ccc(/C=C2\C(=O)Nc3cccc(CCO)c32)cc1-c1cccs1` [IN-008, 4-(2-Hydroxy-ethyl)-3-(4-methoxy-3-thiophen-2-yl-benzylidene)-1,3-dihydro-indol-2-one], the IC50 at PDGFR turned out to be 5.5 µM; on Her2 [1] it was 2.3 µM; on Her2 [2], 8.5 µM.

Consider `Cc1[nH]c(/C=C2\C(=O)Nc3cccc(CCOc4cccc(C(C)C)c4)c32)c(C)c1CCCN(C)C` [IN-023], for which the IC50 on PDGFR was 23.6 µM; at Her2 [1], 33.8 µM; at Her2 [2], above 100 µM.

Take `Cc1[nH]c(/C=C2\C(=O)Nc3cccc(CCOc4ccc(C(C)C)cc4)c32)c(C)c1CCC(=O)O` [IN-024, 3-(5-{4-[2-(4-Isopropyl-phenoxy)-ethyl]-2-oxo-1,2-dihydro-indol-3-ylidenemethyl}-2,4-dimethyl-1H-pyrro-3-yl)-propionic acid]: the IC50 is 49.6 µM at PDGFR, above 50 µM on Her2 [1] and above 100 µM against Her2 [2].

The values are drawn from US6689806B1, “Indolinone compounds as kinase inhibitors” (Sugen, Inc., priority 1999, dated 2004).
